We go through one molecule from US20160166520A1, “METHODS AND COMPOSITIONS RELATING TO THE TREATMENT OF VISCERAL FAT AND ASTHMA” (YALE UNIVERSITY, priority 2014, published 2016).

In assay [1] the target is T1, Sirt1 (Mus musculus, UniProt Q923E4).
T1 construct: from tissue; host or cells: whole living mice (WT and Chi3l1-/-); read-outs in lung/BAL and epididymal fat pads
T1 sequence (Q923E4 1-737): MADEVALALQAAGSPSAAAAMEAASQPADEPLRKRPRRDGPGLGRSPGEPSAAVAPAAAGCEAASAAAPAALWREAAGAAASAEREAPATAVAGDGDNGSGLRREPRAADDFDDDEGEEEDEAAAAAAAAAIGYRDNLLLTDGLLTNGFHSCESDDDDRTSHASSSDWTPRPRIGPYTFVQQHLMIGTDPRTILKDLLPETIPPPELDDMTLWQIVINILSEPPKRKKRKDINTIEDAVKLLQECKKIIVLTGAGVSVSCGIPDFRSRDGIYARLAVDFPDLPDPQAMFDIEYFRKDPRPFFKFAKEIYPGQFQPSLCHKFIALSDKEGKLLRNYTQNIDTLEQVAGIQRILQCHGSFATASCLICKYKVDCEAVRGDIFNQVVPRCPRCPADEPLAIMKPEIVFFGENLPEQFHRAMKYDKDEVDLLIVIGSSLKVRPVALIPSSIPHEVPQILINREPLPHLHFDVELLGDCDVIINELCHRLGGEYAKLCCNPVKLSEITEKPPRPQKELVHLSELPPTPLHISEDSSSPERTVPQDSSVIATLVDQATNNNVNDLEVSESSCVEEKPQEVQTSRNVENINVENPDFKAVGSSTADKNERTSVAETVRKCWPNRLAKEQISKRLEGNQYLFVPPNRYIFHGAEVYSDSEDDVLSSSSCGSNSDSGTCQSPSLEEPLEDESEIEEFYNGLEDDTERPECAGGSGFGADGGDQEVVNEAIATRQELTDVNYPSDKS
Kind of assay: OVA aeroallergen-induced adaptive Th2 lung inflammation in mice treated with Sirt1 inhibitor. To be noted: OVA sensitized and challenged, 0.4 mg/kg body weight per day i.p. one hour before every antigen challenge, vs DMSO vehicle. It counts as in vivo. The procedure: WT and Chit3l1^−/− mice were sensitized and challenged with OVA (ova+) or PBS (ova−) and were treated with Sirtinol or its vehicle (DMSO). Each animal received drug (0.4 mg/kg body weight per day) or vehicle one hour before every antigen challenge. FIGS. 6A-6B depict BAL total cell and eosinophil recovery, FIG. 6C depicts H&E photomicrographs of lungs from WT and Chi3l1^−/− mice treated with sirtinol or vehicle after OVA challenge, FIGS. 6D-6H depict the levels of mRNA encoding IL-4, IL-13, IL-17, IL-6 and TNF-α in the lungs of WT and Chi3l1^−/− mice treated with Sirtinol or DMSO. The noted values represent the mean±SEM of a minimum of 5 animals. (*p≦0.05, **p≦0.01). Mice were sensitized and challenged with ovalbumin (OVA) as previously described (20). One day after last challenge, the mice were sacrificed, bronchoalveolar lavage (BAL) was undertaken, and tissue responses were evaluated. Sirtinol, a Sirt1 inhibitor (Enzo Life Sciences) or vehicle control (0.05% dimethyl sulofoxide) were diluted with Phosphate Buffered Saline (PBS) and administered via an intraperitoneal (i.p.) route.

Assay [2] addresses T1, Sirt1. The assay is described as follows: Visceral (epididymal) fat accumulation in mice treated with Sirt1 inhibitor. It counts as in vivo. To be noted: 0.4 mg/kg body weight per day i.p. twice per week for 5 weeks, vs DMSO vehicle. The protocol: WT and Chi3l1^−/− mice were treated with Sirtinol or its vehicle (DMSO) and fat accumulation was assessed. Each animal received drug (0.4 mg/kg body weight per day) or vehicle twice per week for 5 weeks. FIG. 7A depicts a representative photograph illustrating abdominal fat accumulation, FIG. 7B depicts the weight of epididymal fat pads from WT and chi3l1^−/− mice. The noted values represent the mean±SEM of a minimum of 5 animals. (*P≦0.05, **p≦0.01). Sirtinol, a Sirt1 inhibitor (Enzo Life Sciences) or vehicle control (0.05% dimethyl sulofoxide) were diluted with Phosphate Buffered Saline (PBS) and administered via an intraperitoneal (i.p.) route.

For the molecule `CC(NC(=O)c1ccccc1/N=C/c1c(O)ccc2ccccc12)c1ccccc1` (stereo not shown) [Sirtinol], on Sirt1 [1] (Chi3l1 null mice), the “aeroallergen induced Th2 inflammation and Th2, IL-17 and IL-6 cytokine expression, and airway mucus” value is recorded as “restored”. At Sirt1 [1] (WT mice), the “aeroallergen-induced Th2 inflammation and Th2, IL-17 and IL-6 cytokine production and mucus production in the lung” value was “diminished”. Further, the “levels of visceral fat” value is recorded as “restored” at Sirt1 [2] (Chi3l1 null mice) and “did not significantly alter” on Sirt1 [2] (WT mice).
